From US10597388B2, “Pyridazinone herbicides” (FMC CORPORATION, priority 2014, dated 2020)
Where two headings read alike, the source gives them in different places.

How the values were obtained:
Assay type in all cases: in vivo
[1] = test system: velvetleaf (Abutilon theophrasti); assay: Test A greenhouse herbicide test, pre- and postemergence; settings: Abutilon theophrasti, 240 h, 1000 g ai/ha, 0 to 100 scale
In short: (§1)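 Visual injury ratings, 0 (no effect) to 100 (complete control), versus untreated plants after roughly 10 d in a greenhouse. Compounds, formulated in a surfactant-containing non-phytotoxic solvent, were sprayed on loam–sand soil after sowing (pre) or on one- to two-leaf plants 2–10 cm tall (post).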

[2] = test system: momingglory (Ipomoea spp.); assay: as above; settings: Ipomoea, 240 h, 1000 g ai/ha, 0 to 100 scale
In short: as §1

[3] = test system: crabgrass, large (large crabgrass, Digitaria sanguinalis); assay: as above; settings: Digitaria sanguinalis, 240 h, 1000 g ai/ha, 0 to 100 scale
In short: as §1

[4] = test system: waterhemp (common waterhemp, Amaranthus rudis); assay: Test E greenhouse herbicide test, pre- and postemergence
In short: (§2)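 Herbicidal effect was judged by eye relative to untreated plants 14 to 21 d after spraying, using 0 for no effect and 100 for complete control. Preemergence sprays went onto freshly seeded silt loam; postemergence sprays onto 2–18 cm seedlings.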

[5] = test system: arrowleaf sida (Sida rhombifolia); assay: as above
In short: as §2

[6] = test system: goosegrass (Eleusine indica); assay: as above; settings: Preemergence
In short: as §2

[7] = test system: field bindweed (Convolvulus arvensis); assay: as above
In short: as §2

[8] = test system: wild poinsettia (Euphorbia heterophylla); assay: as above
In short: as §2

[9] = post-emergence, Postemergence, 0 is no effect, 100 is complete control, read-out: Velvetleaf plant response rating
[10] = pre-emergence, Preemergence, 0 no effect, 100 complete control, read-out: Plant response rating, Velvetleaf
[11] = post-emergence, Postemergence, 0 is no effect, 100 is complete control, read-out: Morningglory plant response rating
[12] = pre-emergence, Preemergence, 0 no effect, 100 complete control, read-out: Plant response rating, Morningglory
[13] = post-emergence, Postemergence, 0 is no effect, 100 is complete control, read-out: Crabgrass, Large plant response rating
[14] = pre-emergence, Preemergence, 0 no effect, 100 complete control, read-out: Plant response rating, Crabgrass, Large
[15] = 62 g ai/ha, Postemergence, scale 0 to 100 (0 no effect, 100 complete control)
[16] = 62 g ai/ha, Preemergence, scale 0 to 100 (0 no effect, 100 complete control)
[17] = 125 g ai/ha, Postemergence, scale 0 to 100 (0 no effect, 100 complete control)
[18] = 125 g ai/ha, Preemergence, scale 0 to 100 (0 no effect, 100 complete control)
[19] = 250 g ai/ha, Postemergence, scale 0 to 100 (0 no effect, 100 complete control)
[20] = Postemergence, 31 g ai/ha, visual, scale 0 no effect to 100 complete control
[21] = Preemergence, 31 g ai/ha, scale 0 to 100, 0 no effect, 100 complete control
[22] = Preemergence, 250 g ai/ha, visual, scale 0 no effect to 100 complete control
[23] = Preemergence, 125 g ai/ha, visual, scale 0 no effect to 100 complete control
[24] = 62 g ai/ha, scale 0 to 100 (0 no effect, 100 complete control)
[25] = 31 g ai/ha, scale 0 to 100, 0 no effect, 100 complete control
[26] = 125 g ai/ha, visual, scale 0 no effect to 100 complete control
[27] = 250 g ai/ha, visual, scale 0 no effect to 100 complete control

Compound | Plant response rating, Waterhemp [4, 15] | Plant response rating, Waterhemp [4, 16] | Plant response rating, Waterhemp [4, 17] | Plant response rating, Waterhemp [4, 18] | Plant response rating, Waterhemp [4, 19] | Plant response rating, Waterhemp [4, 20] | Plant response rating, Waterhemp [4, 21] | Plant response rating, Waterhemp [4, 22] | Plant response rating, Arrowleaf Sida [5, 15] | Plant response rating, Arrowleaf Sida [5, 16] | Plant response rating, Arrowleaf Sida [5, 17] | Plant response rating, Arrowleaf Sida [5, 19] | Plant response rating, Arrowleaf Sida [5, 20] | Plant response rating, Arrowleaf Sida [5, 21] | Plant response rating, Arrowleaf Sida [5, 22] | Plant response rating, Goosegrass [6, 24] | Plant response rating, Goosegrass [6, 25] | Plant response rating, Goosegrass [6, 27] | Plant response rating, Field Bindweed [7, 15] | Plant response rating, Field Bindweed [7, 16] | also measured
CCc1oc2ccc(C)cc2c1-c1c(O)c(C)nn(C)c1=O [Compound 10, 4-(2-ethyl-5-methyl-3-benzofuranyl)-5-hydroxy-2,6-dimethyl-3(2H)-pyridazinone] |  |  |  |  |  |  |  |  |  |  |  |  |  |  |  |  |  |  |  |  | pest or weed control at 1000 g/ha [1, 9]: 100%; pest or weed control at 1000 g/ha [1, 10]: 90%; pest or weed control at 1000 g/ha [2, 11]: 100%; pest or weed control at 1000 g/ha [2, 12]: 90%; pest or weed control at 1000 g/ha [3, 13]: 70%; pest or weed control at 1000 g/ha [3, 14]: 90%
Cc1nn(C)c(=O)c(-c2cccc3ccccc23)c1O [Compound 11, 5-hydroxy-2,6-dimethyl-4-(1-naphthalenyl)-3(2H)-pyridazinone] |  |  |  |  |  |  |  |  |  |  |  |  |  |  |  |  |  |  |  |  | pest or weed control at 1000 g/ha [1, 9]: 100%; pest or weed control at 1000 g/ha [1, 10]: 80%; pest or weed control at 1000 g/ha [2, 11]: 90%; pest or weed control at 1000 g/ha [2, 12]: 90%; pest or weed control at 1000 g/ha [3, 13]: 70%; pest or weed control at 1000 g/ha [3, 14]: 80%
Cn1nc(Br)c(O)c(-c2cccc3ccccc23)c1=O [Compound 20] | 75 | 65 | 80 | 85 | 85 | 70 | 0 | 100 | 60 | 70 | 70 | 80 | 40 | 0 | 95 | 10 | 20 | 85 | 85 | 65 | Plant response rating, Arrowleaf Sida [5, 23]: 85; Plant response rating, Goosegrass [6, 26]: 50; Plant response rating, Field Bindweed [7, 17]: 90; Plant response rating, Field Bindweed [7, 19]: 95; Plant response rating, Field Bindweed [7, 20]: 75; Plant response rating, Field Bindweed [7, 21]: 35; Plant response rating, Field Bindweed [7, 23]: 85; Plant response rating, Field Bindweed [7, 22]: 95; Plant response rating, Poinsettia, Wild [8, 15]: 20; Plant response rating, Poinsettia, Wild [8, 17]: 30; Plant response rating, Poinsettia, Wild [8, 19]: 30; Plant response rating, Poinsettia, Wild [8, 20]: 0
Cc1ccc2ccccc2c1-c1c(OC(=O)OC(C)C)c(C)nn(C)c1=O [Compound 72] | 65 | 100 | 80 | 100 | 90 | 65 | 90 | 100 | 75 | 35 | 80 | 90 | 70 | 20 | 65 | 40 | 20 | 80 | 80 | 0 | Plant response rating, Arrowleaf Sida [5, 18]: 85; Plant response rating, Goosegrass ([6]; 125 g ai/ha, scale 0 to 100 (0 no effect, 100 complete control)): 60; Plant response rating, Field Bindweed [7, 17]: 95; Plant response rating, Field Bindweed [7, 18]: 65; Plant response rating, Field Bindweed [7, 19]: 90; Plant response rating, Field Bindweed [7, 20]: 70; Plant response rating, Field Bindweed [7, 21]: 0; Plant response rating, Field Bindweed [7, 22]: 90; Plant response rating, Poinsettia, Wild [8, 15]: 40; Plant response rating, Poinsettia, Wild [8, 16]: 15; Plant response rating, Poinsettia, Wild [8, 17]: 65; Plant response rating, Poinsettia, Wild [8, 18]: 10; Plant response rating, Poinsettia, Wild [8, 19]: 75; Plant response rating, Poinsettia, Wild [8, 20]: 30; Plant response rating, Poinsettia, Wild [8, 21]: 0; Plant response rating, Poinsettia, Wild [8, 22]: 20
CCc1sc2ccc(C)cc2c1-c1c(O)c(C)nn(C)c1=O [Compound 47] | 80 | 90 | 85 | 90 | 100 | 75 | 50 | 100 | 50 | 0 | 60 | 60 | 40 | 0 | 90 | 0 | 0 | 0 | 75 | 50 | Plant response rating, Arrowleaf Sida [5, 23]: 75; Plant response rating, Goosegrass [6, 26]: 0; Plant response rating, Field Bindweed [7, 17]: 85; Plant response rating, Field Bindweed [7, 19]: 90; Plant response rating, Field Bindweed [7, 20]: 70; Plant response rating, Field Bindweed [7, 21]: 50; Plant response rating, Field Bindweed [7, 23]: 90; Plant response rating, Field Bindweed [7, 22]: 100; Plant response rating, Poinsettia, Wild [8, 15]: 15; Plant response rating, Poinsettia, Wild [8, 16]: 0; Plant response rating, Poinsettia, Wild [8, 17]: 25; Plant response rating, Poinsettia, Wild [8, 18]: 0; Plant response rating, Poinsettia, Wild [8, 19]: 30; Plant response rating, Poinsettia, Wild [8, 20]: 10; Plant response rating, Poinsettia, Wild [8, 21]: 0; Plant response rating, Poinsettia, Wild [8, 22]: 20
CCc1sc2c(C)cc(C)cc2c1-c1c(O)c(C)nn(C)c1=O [Compound 57] | 50 | 75 | 30 | 40 | 75 | 50 | 80 | 80 | 20 | 0 | 40 | 45 | 10 | 0 | 40 | 0 | 10 | 5 | 95 | 95 | Plant response rating, Arrowleaf Sida [5, 23]: 50; Plant response rating, Goosegrass [6, 26]: 5; Plant response rating, Field Bindweed [7, 17]: 98; Plant response rating, Field Bindweed [7, 19]: 95; Plant response rating, Field Bindweed [7, 20]: 85; Plant response rating, Field Bindweed [7, 21]: 70; Plant response rating, Field Bindweed [7, 23]: 98; Plant response rating, Field Bindweed [7, 22]: 100; Plant response rating, Poinsettia, Wild [8, 15]: 10; Plant response rating, Poinsettia, Wild [8, 16]: 20; Plant response rating, Poinsettia, Wild [8, 17]: 30; Plant response rating, Poinsettia, Wild [8, 18]: 25; Plant response rating, Poinsettia, Wild [8, 19]: 20; Plant response rating, Poinsettia, Wild [8, 20]: 10; Plant response rating, Poinsettia, Wild [8, 21]: 0; Plant response rating, Poinsettia, Wild [8, 22]: 50
